Assay results taken from US5326774A, “Pharmaceutical preparation of antihypertensive, antianginal, antiarrhythmic and antiglaucomic action” (priority 1992, dated 1994).
“Also recorded” adds a separate entry of the source. Like-named read-outs stand apart in the source and are kept apart here.

Experiments:
[1] = tested on: β-adrenoceptor; assay: β-adrenoceptor blocking effect duration; settings: in vivo
[2] = tested on: mesaton-initiated pressor effect; assay: Mesaton-initiated pressor effect in cats; set-up: species or system cat; settings: in vivo (rats and cats), i.v.
Protocol: The same tests were carried out on cats.

[3] = tested on: electrically induced ventricular fibrillation; assay: Threshold of electrically induced ventricular fibrillation in anesthetized cats; type: in vivo, cat
[4] = tested on: strophantin-induced arrhythmia; type: in vivo, guinea pig
[5] = tested on: coronary vessels; assay: Coronary vessel dilatation and myocardial perfusion in anesthetized rats; type: in vivo, rat; settings: 0.1 mg/kg i.v. (compound of the invention); hydrochloride
Source text: The coronarodilative effect of the compound according to the invention is not associated with its β- and α-adrenoceptor blocking activity and its influence on the systemic perfusion pressure and pump function of the heart. […]

[6] = tested on: myocardium necrosis; assay: Myocardium necrosis in rats with labile coronary occlusion; type: in vivo, rat; settings: for Mass and size myocardium (% to the total area of aortic ventricle): control 31.2 ± 1.96; for Area of myocardium necrosis (% to the total area of aortic ventricle): control 33.5 ± 2.5
[7] = tested on: experimental animals; assay: Chronic toxicity, intragastric; type: in vivo
[8] = Solubility of the active principle; type: physicochemical
[9] = in vivo; settings: mouse
Source text: LD50 values were estimated by using the Litchfield-Wilckoxon method.

Cc1noc(COc2ccccc2OCC(O)CNC(C)(C)C)n1.Cl (centres unmarked) [Compound of the invention, 3-methyl-5-[2-(3-tert.butylamino-2-hydroxypropoxy)phenoxymethyl]-1,2,4-oxadiazole hydrochloride]
β-adrenoceptor blocking effect duration [1]: somewhat superior to propranolol and oxprenolol | adrenoceptor blocking activity compared with labetalol [2]: did not differ from labetalol | threshold of electrically induced ventricular fibrillation ([3]; 1 mg/kg): did not change | threshold of electrically induced ventricular fibrillation ([3]; 5 mg/kg): increased considerably this threshold | value of increasing threshold compared with propranolol and oxprenolol ([3]; 5 mg/kg): higher | antiarrhythmic activity and efficacy (ventricular fibrillation threshold, strophanthin arrhythmia) ([3]; compared with propranolol, oxprenolol, pindolol and labetalol): superior to propranolol, oxprenolol, pindolol and labetalol | Arrhythmogenic dose of strophantin as compared with control: extrasystoles ([4]; 0.1 mg/kg i.v.): 118% | Dose of strophantin as compared with control: ventricular fibrillation ([4]; 0.1 mg/kg i.v.): 115.6% | Lethal dose of strophantin as compared with control: animal death ([4]; 0.1 mg/kg i.v.): 118.7% | Arrhythmogenic dose of strophantin as compared with control: extrasystoles ([4]; 0.3 mg/kg i.v.): 125.9% | Dose of strophantin as compared with control: ventricular fibrillation ([4]; 0.3 mg/kg i.v.): 113.1% | Lethal dose of strophantin as compared with control: animal death ([4]; 0.3 mg/kg i.v.): 123.5% | Arrhythmogenic dose of strophantin as compared with control: extrasystoles ([4]; 1.0 mg/kg i.v.): 148.2% | Dose of strophantin as compared with control: ventricular fibrillation ([4]; 1.0 mg/kg i.v.): 147.2% | Lethal dose of strophantin as compared with control: animal death ([4]; 1.0 mg/kg i.v.): 142.6% | Arrhythmogenic dose of strophantin as compared with control: extrasystoles ([4]; 3.0 mg/kg i.v.): 157.0% | Dose of strophantin as compared with control: ventricular fibrillation ([4]; 3.0 mg/kg i.v.): 170.2% | Lethal dose of strophantin as compared with control: animal death ([4]; 3.0 mg/kg i.v.): 150.7% | antiarrhythmic activity and efficacy ([4]; 0.1-3.0 mg/kg i.v.): superior to propranolol, oxprenolol and labetalol | coronary vessel dilatation / myocardial perfusion [5]: dilatation (with confidence) of coronary vessels; also recorded: direct coronarodilating effect | Mass and size myocardium (% to the total area of aortic ventricle) ([6]; 1 mg/kg): 31.5% | Area of myocardium necrosis (% to the total area of aortic ventricle) ([6]; 1 mg/kg): 30% | aortic ventricle necrosis in mass and size ([6]; 5 mg/kg i.v.): decreasing in the aortic ventricle necrosis in mass and size | Mass and size myocardium (% to the total area of aortic ventricle) ([6]; 5 mg/kg, P < 0.05): 23.6 ± 3.2% | Area of myocardium necrosis (% to the total area of aortic ventricle) ([6]; 5 mg/kg, P < 0.05): 24.3 ± 3.4% | biochemical blood values ([7]; 5 and 30 mg/kg, 6 months): no effect on biochemical blood values | clinical blood values ([7]; 5 and 30 mg/kg, 6 months): did not change the clinical blood values | influence on behavior, appearance, body functions ([7]; 5 and 30 mg/kg, 6 months): not exert an essential influence | locally irritant effect ([7]; 5 and 30 mg/kg, 6 months): did not exert any locally irritant effect | pathologic alterations in structure of internals ([7]; 5 and 30 mg/kg, 6 months): did not lead to pathologic alterations | chronic toxicity tolerance ([7]; intragastric): excellent tolerance | solubility in ethyl ether [8]: substantially insoluble | solubility in water, chloroform, ethanol [8]: readily soluble | LD50 at 72 h ([9]; iv): 72.5 mg/kg | LD50 at 72 h ([9]; po): 600 mg/kg
